From publication PMC6193938, “Characterization of a novel AICARFT inhibitor which potently elevates ZMP and has anti-tumor activity in murine models” (Scientific Reports, 2018)
One block for each molecule: values may come before it.

Legend:
MTHFD1 = target: T1, MTHFD1 (Homo sapiens, UniProt P11586); test: Folate dependent enzyme assay, NADPH (NAD(P)H-Glo); format: biochemical; details: read-out: Positive Control, IC50
T1 construct: made in house; host or cells: E. coli BL21 (DE3)

ATIC (AICARFT) = ATIC (AICARFT) (Homo sapiens, UniProt P31939); test: Folate dependent enzyme assay, conversion of ZMP to IMP (LC-MS); format: biochemical; details: read-out: Positive Control, IC50
Chain of ATIC (AICARFT) (P31939 whole entry): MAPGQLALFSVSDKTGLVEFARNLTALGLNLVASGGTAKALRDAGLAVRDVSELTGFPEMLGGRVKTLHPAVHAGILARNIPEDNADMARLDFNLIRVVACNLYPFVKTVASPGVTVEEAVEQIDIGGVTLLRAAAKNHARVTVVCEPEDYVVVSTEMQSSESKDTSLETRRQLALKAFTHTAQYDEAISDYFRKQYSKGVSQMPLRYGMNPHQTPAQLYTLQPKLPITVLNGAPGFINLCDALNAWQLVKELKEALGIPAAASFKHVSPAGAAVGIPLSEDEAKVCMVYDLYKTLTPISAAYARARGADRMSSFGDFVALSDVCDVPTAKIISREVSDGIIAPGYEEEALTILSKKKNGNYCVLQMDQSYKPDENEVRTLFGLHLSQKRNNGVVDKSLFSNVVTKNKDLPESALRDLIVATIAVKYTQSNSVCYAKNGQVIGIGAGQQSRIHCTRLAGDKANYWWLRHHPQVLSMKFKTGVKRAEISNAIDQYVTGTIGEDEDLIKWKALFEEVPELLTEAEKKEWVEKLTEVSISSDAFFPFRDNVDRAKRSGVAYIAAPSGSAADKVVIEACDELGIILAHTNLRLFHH
Method: (§1) The human MTHFD2 (accession number: NM_006636.3) and MTHFD2L (accession number: NM_001144978.1) cDNAs were synthesized at GenScript. […] Bacterial BL21 (DE3) (Novagen) was used as an expression host, and protein purification is described in supplemental material.
(§2) Catalytic activity was assayed under the listed reaction conditions using a liquid chromatograph and either fluorescence or mass spectrometric detection as indicated. Reactions were carried out at RT for the reaction times given. The % response was fit to a four-parameter logistic equation using ACTIVITYBASE 4.0 to determine IC50 values.

MTHFD2L = MTHFD2L (Homo sapiens, UniProt Q9H903); test: Folate dependent enzyme assay, NADH (NAD(P)H-Glo); format: biochemical; details: read-out: Positive Control, IC50
Chain of MTHFD2L (Q9H903 46-347): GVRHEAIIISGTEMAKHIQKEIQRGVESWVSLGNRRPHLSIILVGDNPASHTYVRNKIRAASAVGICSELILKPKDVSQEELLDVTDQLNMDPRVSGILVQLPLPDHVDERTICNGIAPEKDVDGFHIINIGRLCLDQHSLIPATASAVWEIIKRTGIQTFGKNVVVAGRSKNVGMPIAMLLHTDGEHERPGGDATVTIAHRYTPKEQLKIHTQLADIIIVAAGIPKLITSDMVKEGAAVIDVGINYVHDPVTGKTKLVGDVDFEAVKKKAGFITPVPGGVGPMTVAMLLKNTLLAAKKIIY

MTHFD2 = MTHFD2 (Homo sapiens, UniProt P13995); test: Folate dependent enzyme assay, NADH (NAD(P)H-Glo); format: biochemical; details: read-out: Positive Control, IC50
Chain of MTHFD2 (P13995 32-350): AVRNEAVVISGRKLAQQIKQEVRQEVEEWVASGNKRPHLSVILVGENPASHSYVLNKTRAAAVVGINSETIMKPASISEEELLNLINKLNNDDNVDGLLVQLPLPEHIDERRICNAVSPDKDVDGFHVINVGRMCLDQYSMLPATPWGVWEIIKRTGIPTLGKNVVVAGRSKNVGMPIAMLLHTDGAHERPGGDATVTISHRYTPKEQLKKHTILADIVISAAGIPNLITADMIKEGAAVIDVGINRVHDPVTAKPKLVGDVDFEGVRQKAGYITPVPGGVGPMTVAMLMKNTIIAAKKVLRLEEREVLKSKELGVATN

SHMT1 = SHMT1 (Homo sapiens, UniProt P34896); test: Folate dependent enzyme assay, glycine derivatized with Marfey's reagent (HPLC); format: biochemical; details: read-out: Positive Control, IC50
Chain of SHMT1 (P34896 whole entry): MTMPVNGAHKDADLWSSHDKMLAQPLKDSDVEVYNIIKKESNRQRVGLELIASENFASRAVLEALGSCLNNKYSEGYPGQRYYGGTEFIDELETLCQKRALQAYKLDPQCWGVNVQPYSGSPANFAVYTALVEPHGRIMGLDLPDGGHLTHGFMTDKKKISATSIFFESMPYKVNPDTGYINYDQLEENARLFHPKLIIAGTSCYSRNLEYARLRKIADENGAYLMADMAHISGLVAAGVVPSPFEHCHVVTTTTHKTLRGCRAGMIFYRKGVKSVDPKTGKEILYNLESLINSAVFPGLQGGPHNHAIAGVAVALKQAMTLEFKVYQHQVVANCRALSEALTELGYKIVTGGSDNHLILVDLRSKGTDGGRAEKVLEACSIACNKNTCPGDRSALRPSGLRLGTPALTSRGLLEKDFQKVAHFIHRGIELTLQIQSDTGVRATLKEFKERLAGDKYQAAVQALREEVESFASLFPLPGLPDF
Method: as §1, §2

[1] = system: MDA-MB-231met2 and NCI-H460 tumors; test: Tumor volume versus tumor ZMP levels, three parameter logistic fit; format: in vivo, mouse; details: individual animal data after LSN3213128 treatment, read-out: IC50 of tumor ZMP level for tumor volume
Source text: The levels of total AMPKα and P70S6K are also shown. […] The levels of total AMPKα are also shown. […] Full images and the croppings used in this figure are shown in Supplemental Figures S14–S21.
Tumor volume decreases with increasing ZMP; however, in these solid tumors there was no evidence for AMPK activation, either using AMPK phosphorylation at T172 or downstream measures at P70S6K T389. Salvage of purines in vivo may explain the absence of purine changes; therefore, we measured levels of hypoxanthine for mouse plasma to be 0.36 ± 0.02 μM (n = 5) which was lower than that reported by Slowiaczek et al.[23]. We also quantified hypoxanthine in human plasma, finding the levels were 2.07 ± 0.01 μM (n = 5), well within the 0.45–34 μM range reported in the literature[19],[23]–[29].

NCI-H460 (lung) = test: MS detection of ZMP in cultured cells; format: cell-based, human; details: NCI-H460; data not shown
Method: Cells lines were acquired from cell banks, see supplemental material, grown using the cell banks recommended culture conditions (Supplemental Table 3). In some experiments noted “low folate” the cells were washed and grown in folate free RPMI-1640 media (Gibco #27016-021) supplemented with 5 ml 1 M Hepes, 5 ml 100 mM Na pyruvate, 2.5 mg/ml glucose and 10% defined FBS (Hyclone #SH30070) per 500 mL media for 5–7 days to deplete intracellular folate levels prior to the start of the experiment. Where noted, cells were maintained in complete “high folate” RPMI-1640 media (ATCC #30-2001) with 10% defined FBS to contrast with the low folate conditions.
ZMP was detected in cultured cells via mass spec analysis. Cells were plated in 96-well plates at 25,000 cells per well in 100 µL with either high or low folate RPMI media and incubated overnight at 37 °C with 5% CO2. Cells were treated with inhibitor compounds for 16 hours, 0.5% DMSO final concentration. Growth media was decanted and cells were lysed for 10 min at room temperature with 50 µL per well of 1x Sure Fire Lysis buffer (Perkin Elmer, SureFire kit component). Aliquots (40 µL) of standard or sample were combined in a deep 96-well plate with 160 µL of internal standard solution containing ^13C5-ZMP (custom synthesis) and ^13C5-AICAr (custom synthesis) at 100 ng/mL in 40 mM ammonium acetate, pH 4. 400 µL of dichloromethane was added to each sample. Samples were sealed, vortexed for 5 minutes, and placed in the refrigerator for at least 30 minutes. The samples were centrifuged at 4 °C for 10 minutes at 16,600 g. 75 µL of the aqueous layer were transferred to a clean 96-well plate and seal prior to analysis.
The LC-MS method utilizes a Shimadzu Prominence 20 A HPLC system connected to an AB Sciex 5500™ or an AB Sciex 6500™ triple quadrupole mass spectrometer. Extracted samples were separated using a Thermo Hypercarb™ Javelin guard column (2.1 × 20 mm, 5 µm) with an injection volume of 15 µL and a flow rate of 1 mL/minute.
ZMP, AICAr and dUMP were detected using positive ion TurboIonSpray® multiple reaction monitoring mode and the data were processed with AB Sciex MultiQuant™. Back-calculated ZMP concentrations were fit to a four-parameter logistic equation using ACTIVITYBASE 4.0 to determine EC50 values relative to the maximum observed metabolite levels.

A9 cells = test: MS detection of ZMP and dUMP in cultured cells; format: cell-based, murine; details: A9; data not shown
Method: To mimic human plasma levels, low folate media is traditionally used in which the folate comes only from the defined fetal bovine serum. […] Because LSN3213128 would be dosed in mice on normal diet, cell line screening was performed under standard tissue culture conditions to identify cell lines sensitive to treatment under high folate conditions. In order to compare tissue culture values with tumor levels, an average 4 pL cell volume[36] was used to calculate cellular ZMP concentrations. In MDA-MB-231[…] cells using regular RPMI, the peak intracellular ZMP levels are about 770 μM while in the salvage deficient A9 cells ZMP is 6,500 μM. […] It is not surprising that in vivo in mice on standard chow where folate plasma levels are >10-fold lower than tissue culture that tumor ZMP levels are also lower. […] ZMP was detected in cultured cells via mass spec analysis. Cells were plated in 96-well plates at 25,000 cells per well in 100 μL with either high or low folate RPMI media and incubated overnight at 37 °C with 5% CO2. Cells were treated with inhibitor compounds for 16 hours, 0.5% DMSO final concentration. Growth media was decanted and cells were lysed for 10 min at room temperature with 50 μL per well of 1x Sure Fire Lysis buffer (Perkin Elmer, SureFire kit component). […] Samples were sealed, vortexed for 5 minutes, and placed in the refrigerator for at least 30 minutes. The samples were centrifuged at 4 °C for 10 minutes at 16,600 g. 75 μL of the aqueous layer were transferred to a clean 96-well plate and seal prior to analysis. The LC-MS method utilizes a Shimadzu Prominence 20 A HPLC system connected to an AB Sciex 5500TM or an AB Sciex 6500TM triple quadrupole mass spectrometer. […] […] dUMP were detected using positive ion TurboIonSpray® multiple reaction monitoring mode and the data were processed with AB Sciex MultiQuantTM. Back-calculated ZMP concentrations were fit to a four-parameter logistic equation using ACTIVITYBASE 4.0 to determine EC50 values relative to the maximum observed metabolite levels.

T1 sequence (P11586 whole entry): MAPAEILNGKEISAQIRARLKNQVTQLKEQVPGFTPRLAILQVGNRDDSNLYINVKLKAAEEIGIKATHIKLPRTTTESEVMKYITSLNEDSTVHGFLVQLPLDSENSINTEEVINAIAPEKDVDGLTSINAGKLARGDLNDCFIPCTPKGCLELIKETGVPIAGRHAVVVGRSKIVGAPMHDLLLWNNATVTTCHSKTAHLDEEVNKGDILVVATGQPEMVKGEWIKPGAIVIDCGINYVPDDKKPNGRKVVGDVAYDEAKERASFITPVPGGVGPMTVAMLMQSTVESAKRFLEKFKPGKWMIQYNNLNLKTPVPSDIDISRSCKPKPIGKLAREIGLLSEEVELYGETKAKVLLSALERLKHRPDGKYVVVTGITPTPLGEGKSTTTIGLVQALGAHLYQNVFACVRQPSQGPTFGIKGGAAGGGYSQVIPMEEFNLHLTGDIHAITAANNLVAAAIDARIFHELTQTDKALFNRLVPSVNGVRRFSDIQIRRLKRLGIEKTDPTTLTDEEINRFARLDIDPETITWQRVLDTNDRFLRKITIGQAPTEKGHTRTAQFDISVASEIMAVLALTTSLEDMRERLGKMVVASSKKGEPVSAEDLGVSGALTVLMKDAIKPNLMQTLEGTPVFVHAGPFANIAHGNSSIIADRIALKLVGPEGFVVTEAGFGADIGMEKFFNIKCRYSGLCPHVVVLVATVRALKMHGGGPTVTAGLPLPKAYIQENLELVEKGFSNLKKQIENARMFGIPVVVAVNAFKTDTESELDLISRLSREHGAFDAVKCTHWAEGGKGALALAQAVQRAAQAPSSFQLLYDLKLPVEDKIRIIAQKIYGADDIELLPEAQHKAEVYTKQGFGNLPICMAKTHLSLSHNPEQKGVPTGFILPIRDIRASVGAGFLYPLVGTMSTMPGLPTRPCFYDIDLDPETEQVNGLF

IC50 (MTHFD1): 5.6 µM
IC50 (ATIC (AICARFT)): 9.2 µM
IC50 (MTHFD2L): 8.6 µM
IC50 (MTHFD2): 1.4 µM
IC50 (SHMT1): 10.1 µM
Structure (SMILES): Nc1nc2[nH]cc(CCCc3ccc(C(=O)N[C@@H](CCC(=O)O)C(=O)O)cc3)c2c(=O)[nH]1 [N-({4-[3-(2-AMINO-4-HYDROXY-7H-PYRROLO[2,3-D]PYRIMIDIN-5-YL)PROPYL]PHENYL}CARBONYL)-L-GLUTAMIC ACID]

IC50 [1]: 108 ± 78 µM
Structure (SMILES): NC(=O)c1ncn([C@@H]2O[C@H](COP(=O)(O)O)[C@@H](O)[C@H]2O)c1N [ZMP, 5-aminoimidazole 4-carboxamide ribonucleotide]

Structure (SMILES): Nc1nc2c(c(=O)[nH]1)C[C@@H](CCc1ccc(C(=O)N[C@@H](CCC(=O)O)C(=O)O)cc1)CN2 [lometrexol, reference compound]
effect on ZMP (NCI-H460 (lung)): inhibits ZMP
effect on ZMP (A9 cells): inhibits ZMP
